Here are results for 1 compound from patent US20190298650A1, “FORMULATION AND COMPOSITION FOR PREVENTING AND/OR DISSOLVING BIOFILM ON THE SKIN OF A DOMESTIC ANIMAL” (Dechra Veterinary Products LLC, priority 2018, published 2019).

Assay [1] relates to Pseudomonas spp isolates from clinical canine otitis cases (biofilm). The experiment in a line: Biofilm breaking assay (crystal violet OD570 on a 24 h pre-formed biofilm). Particulars: only NAC 5 mg/mL, 14 isolates. In kind it is cell-based. The procedure:
One hundred Pseudomonas spp isolates from clinical canine otitis cases from the UK (96), Dubai (3) and Malta (1) were submitted to NationWide Laboratories Knutton (CAPL) for routine culture and susceptibility testing over a 12 month period. Four isolates were from two dogs with bilateral otitis. […] Isolates were then stored frozen of beads (ProLab UK) at -20° C. […] Negative control wells, in triplicate, contained 180 μL of LBB and 20 μL of distilled, sterile water. Plates were then incubated for 24 hours at 37° C. Contents of the wells were discarded prior to washing three times in phosphate buffered saline (PBS) at pH 7.2. […] 100 μL of Luria-Bertani enrichment broth (LBB) and 100 μL of sterile, distilled water for negative control. […] For the biofilm breaking assay the following dilutions where tested. The dilutions were made using a Broth (LBB). […] Plates were then incubated for another 24 hours period. Contents of the wells were discarded prior to washing three times in phosphate buffered saline (PBS) at pH 7.2. […] The contents were removed by micropipetting before plates rinsed thoroughly under running water. […] Plates were covered to prevent evaporation.

Assay [2] has as its system Pseudomonas spp isolates from clinical canine otitis cases. The experiment in a line: Biofilm prevention assay (MIC read visually, then crystal violet OD570). It counts as cell-based. Particulars: 28 isolates, LBB, 24 h at 37° C., NAC alone. From the text:
One hundred Pseudomonas spp isolates from clinical canine otitis cases from the UK (96), Dubai (3) and Malta (1) were submitted to NationWide Laboratories Knutton (CAPL) for routine culture and susceptibility testing over a 12 month period. Four isolates were from two dogs with bilateral otitis.
The dilutions were made using a Broth (LBB).
Contents of the wells were discarded prior to washing three times in phosphate buffered saline (PBS) at pH 7.2. […] The contents were removed by micropipetting before plates rinsed thoroughly under running water. […] Plates were covered to prevent evaporation.

In brackets after ≈: the same amount, converted by molar mass.

In the case of `CC(=O)N[C@@H](CS)C(=O)O` [NAC, (2R)-2-acetamido-3-sulfanylpropanoic acid], in assay [1], the “optical density (OD570) Max.” value was 1.40, the “optical density (OD570) Mean” value was found to be 0.38, the “optical density (OD570) Median” value is on record as 0.26 and the “optical density (OD570) Min.” value was −0.03. The compound also came in with an MIC in assay [2] of 50 mg/mL (≈ 306 mM).
